pIC50: −log10 of the molar value. Counter-ions that a name gives are not always drawn.
Columns and labels:
[1] = target: T1, delta receptor (Mus musculus, UniProt P32300); assay: cAMP bioassay in NG108-15 cells (inhibition of forskolin-stimulated cAMP); assay type: cell-based
T1 construct: endogenous in cells; host or cells: NG108-15 cells
Description: The delta agonistlantagonist activity of the compounds of the present invention is determined in the cAMP bioassay in NG108-15 cell lines as described below.
NG 108-15 cell were grown at 37° C. in humidified atmosphere of 5% CO2 and 95% air in DMEM (without sodium pyruvate using 4500 mg/l glucose) supplemented with 10% foetal calf serum containing 2 mM glutamine, 2% HAT×50 supplement, 50 μg streptomycin and 50 I.U. penicillin per ml confluent cells were harvested with […] in Ca/Mg-free phosphate-buffered saline with mechanical stiring. Medium was replaced every 2 day. One day before the experiment the cells were dispensed in 17 mm culture plate (about 10×10^6 cells/plate). After 1 day, the growth medium was removed and cells washed twice with a modified Krebs-Ringer medium buffered with hepes-NaOH 200 mM, pH 7.4, that contained (mmol/l): NaCl (125), KCl (5), KH2PO4 (0.4), MgSO4 and CaCl2 (1.2) NaHCO3 (25), glucose (12). Incubation medium was also including 1 mM 3-isobuthyl-1-methylxantine (IBMX). Experiments were performed at room temperature. After incubation for 10 minutes to allow IBMX incorporation, NG108-15 cells were exposed to 1 μM forskolin and the compound to be tested, for 10 minutes. […] The pellets from the original plates were dissolved in NaOH 0.5N and the protein content was determined with the method described by Bradfort (Anal. Biochem. 1976, 72, 248). […]

[2] = target: T2, kappa opioid receptor (Mus musculus, UniProt P33534); assay: radioligand binding, kappa ligand [3H]-U69593, mouse brain membranes; details: selectivity ratio
T2 construct: Mouse brain membranes were prepared as described by Kosterlitz; from tissue; host or cells: mouse brain membranes
T2 sequence (P33534 whole entry): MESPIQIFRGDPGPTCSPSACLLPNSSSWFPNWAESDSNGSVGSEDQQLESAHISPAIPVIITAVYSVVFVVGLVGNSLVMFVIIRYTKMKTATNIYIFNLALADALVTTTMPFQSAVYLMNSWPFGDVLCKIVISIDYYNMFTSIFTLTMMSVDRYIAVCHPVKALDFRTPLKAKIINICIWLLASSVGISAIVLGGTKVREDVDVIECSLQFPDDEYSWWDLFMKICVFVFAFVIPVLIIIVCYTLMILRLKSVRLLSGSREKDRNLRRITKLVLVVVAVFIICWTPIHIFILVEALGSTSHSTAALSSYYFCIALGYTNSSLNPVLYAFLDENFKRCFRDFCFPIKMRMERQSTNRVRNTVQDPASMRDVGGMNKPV
Description: (§1) The activity of the compounds of the present invention as selective delta ligands is determined in radioligand binding assays as described below.
(§2) Mouse brain membranes were prepared as described by Kosterlitz (Br. J. Pharmacol., 1981, 73, 939.). The binding of the preferential delta ligand [^3H]-[D-Ala^2,D-Leu^5]-enkephalin (DADLE) was evaluated at its KD concentration (1.3 nM) in presence of 40 nM of the unlabelled mu ligand [D-Ala^2, MePhe^4, Gly-ol^5]-enkephalin (DAMGO). The binding of the mu ligand [^3H]-DAMGO (Eur. J. Pharmacol., 1989, 166, 213) and of the kappa ligand [^3H]-U69593 (Excerpta Medica, 1990, 211) were carried out at 0.5 nM. The non-specific binding was determined in presence of naloxone (10 μM) for all tritiated ligands. Binding data were expressed as percentage of inhibition and fitted the following equation: f(x)=100·X/(IC50+X) where X are cold drug concentration values. The IC50 obtained were used to calculate the inhibitory constants (Ki) accordingly to the Cheng and Prusoff relation (Biochem. Pharmacol., 1973, 22, 3099).

[3] = target: T3, mu opioid receptor (Mus musculus, UniProt P42866); assay: radioligand binding, mu ligand [3H]-DAMGO, mouse brain membranes; details: selectivity ratio
T3 construct: Mouse brain membranes were prepared as described by Kosterlitz; from tissue; host or cells: mouse brain membranes
T3 sequence (P42866 whole entry): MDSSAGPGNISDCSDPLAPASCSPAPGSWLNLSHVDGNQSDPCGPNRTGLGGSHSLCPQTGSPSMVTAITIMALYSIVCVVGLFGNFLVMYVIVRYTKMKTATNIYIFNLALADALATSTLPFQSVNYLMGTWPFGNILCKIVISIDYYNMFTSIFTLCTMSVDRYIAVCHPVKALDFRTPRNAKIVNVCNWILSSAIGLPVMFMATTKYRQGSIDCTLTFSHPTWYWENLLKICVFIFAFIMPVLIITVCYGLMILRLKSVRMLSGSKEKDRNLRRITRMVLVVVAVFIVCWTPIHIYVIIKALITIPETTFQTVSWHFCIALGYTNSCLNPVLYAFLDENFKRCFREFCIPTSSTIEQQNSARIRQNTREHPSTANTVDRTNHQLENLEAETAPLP
Description: as §1, §2

T1 sequence (P32300 whole entry): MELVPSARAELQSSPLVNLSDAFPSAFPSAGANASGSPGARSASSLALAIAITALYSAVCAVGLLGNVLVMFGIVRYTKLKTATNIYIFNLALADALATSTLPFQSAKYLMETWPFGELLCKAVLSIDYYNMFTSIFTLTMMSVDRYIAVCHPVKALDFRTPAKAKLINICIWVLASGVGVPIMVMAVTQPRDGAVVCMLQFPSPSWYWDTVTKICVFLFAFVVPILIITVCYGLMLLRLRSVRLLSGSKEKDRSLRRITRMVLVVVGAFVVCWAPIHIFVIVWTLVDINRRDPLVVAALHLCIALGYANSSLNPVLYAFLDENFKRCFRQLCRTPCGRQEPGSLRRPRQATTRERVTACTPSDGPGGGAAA

**Q.** Which results are given for COc1ccc2c3c1O[C@H]1c4[nH]c(C(=O)N(Cc5ccccc5)C(C)C)c(C)c4C[C@H]4[C@@H](C2)N(C)CC[C@]314 [Example 1, [R-(4bS*,8α,s8aβp,12βp)]11(N-N-benzylN-isopropylaminocarbonyl)-7,10dimethyl-1-methoxy-5,6,7,8,12,12b-hexahydro-(9H){4,8methanobenzofuro[3,2]pyrrolo[2,3-g]soquinoline hydrochloride]?
**A.** pIC50 [1]: 7.82; antagonism of the agonist activity by the selective delta antagonist naltrindole ([1]; NG108-15 cells, naltrindole 100 nM): completely antagonised

**Q.** For CCOC(=O)c1[nH]c2c(c1C(F)(F)F)C[C@H]1[C@H]3Cc4ccc(OC)c5c4[C@@]1(CCN3C)[C@H]2O5 [Example 10], which “Ki kappa/Ki delta” value [2] is on record?
**A.** Its value is 600.

**Q.** And the “Ki mu/Ki delta” value [3]?
**A.** Its value is 840.

**Q.** And the melting point?
**A.** The melting point was 174 °C.

— US6365594B1, “Heterocycle-condensed morphinoid derivatives (II)” (SmithKline Beecham S.p.A., priority 1996, dated 2002)
